Source: paper PMC6273913, “New α-Methylene-γ-Butyrolactone Derivatives as Potential Fungicidal Agents: Design, Synthesis and Antifungal Activities” (Molecules, 2016)
Like-named read-outs stand apart in the source and are kept apart here.

Tests used:
C. lagenarium = test: Spore germination assay, fungicidal activity against C. lagenarium; type: cell-based, Colletotrichum lagenarium; conditions: Colletotrichum orbiculare
Procedure: (§1) The fungal pathogens C. lagenarium and B. cinerea was provided by the Agricultural Culture Collection of China (Yangling, Shaanxi, China). C. lagenarium was cultured for 2 weeks at 25 ± 1 °C on potato dextrose agar (PDA) while B. cinerea was cultured at 20 °C on the same medium after being retrieved from the storage tube. Plates were flooded with sterile distilled water, and then conidia were scraped with a glass rod. Mycelial debris was removed by filtration. The spores were harvested and suspended in sterile distilled water containing 0.1% (v/v) Tween 20. The concentration of the spore suspension was adjusted to 1.0 × 10^6 spores/mL with sterilized distilled water following.
(§2) The tested samples (10.0 mg) dissolved in acetone (0.1 mL) were diluted with sterile distilled water to prepare 10.0 mL stock solution, which was further diluted to prepare test solutions in which the final concentration of acetone was <1% (v/v). A series of concentrations of tested samples and one control (1% acetone with sterile distilled water) were separately tested for spore germination of C. lagenarium or B. cinerea. The samples were inoculated with spore suspension of C. lagenarium or B. cinerea containing 1.0 × 10^6 spores/mL. Aliquots of 10 μL of prepared spore suspension were placed on separate glass slides in triplicate. Slides containing the spores were incubated in a moisture chamber at 25 °C for 6~8 h. Each slide was then observed under the microscope for spore germination. Spores were considered to have germinated if the length of the germ tube was at least half the length of the spore. Afterward, spore germination was stopped by applying a drop of lactophenol-cotton blue to the inoculation sites on plates. The numbers of generated spores were counted under a microscope (Olympus BX61, Tokyo, Japan), and the percentage of germinated spores was calculated. Chlorothalonil was used as the positive control.

B. cinerea = test: Spore germination assay, fungicidal activity against B. cinerea; type: cell-based, Botrytis cinerea; conditions: Botrytis cinerea, in vitro, n = 3
Procedure: as §1, §2

HepG2 cell line = test: Cytotoxic activity against human tumor cells line (HepG2); type: cell-based
[1] = Table 1, from IC50 in μM, read-out: pIC50, C. lagenarium (converted)
[2] = Table 2, fungicidal activity against C. lagenarium used for QSAR, read-out: pIC50 (converted)
[3] = Table 4, experimental, C. lagenarium, read-out: Exp. pIC50 (converted)
[4] = Table 6, read-out: IC50 (μM) (against C. lagenarium)
[5] = in vitro, spore germination, n = 3, read-out: IC50, C. lagenarium

| SMILES | melting point [°C] | IC50 (C. lagenarium; [1]) [µM] | IC50 (C. lagenarium; [2]) [µM] | IC50 (C. lagenarium; [3]) [µM] | IC50 (C. lagenarium; [4]) [µM] | IC50 (C. lagenarium; [5]) [µM] | IC50 (B. cinerea) [µM] | IC50 (HepG2 cell line) [µM] |
| --- | --- | --- | --- | --- | --- | --- | --- | --- |
| C=C1CC(c2cccc(OC(=O)C=Cc3ccccc3)c2)OC1=O (centres unmarked) [Compound 6n, 4-(3-Cinnamoyloxyphenyl)-2-methylenebutyrolactone] |  | 24.3 | 24.3 | 24.3 | 24.2 | 24.2 | 40.3 | 15.7 |
| C=C1CC(c2cccc(OCCCC)c2)OC1=O (centres unmarked) [Compound 6o, 4-(3-Butoxyphenyl)-2-methylenebutyrolactone] |  | 242 | 242 | 242 | 242 | 242 | 280 | > 108 |
| C=C1CC(c2ccc(OC(=O)c3cccc(C#N)c3)cc2)OC1=O (centres unmarked) [Compound 4g, 4-[4-(3-Benzonitrile)phenyl]-2-methylenebutyrolactone] |  | 52.8 | 52.8 | 52.8 | 52.9 | 52.9 | 60.6 | 18.3 |
| C=C1CC(c2ccccc2OCCC)OC1=O (centres unmarked) [Compound 5p, 4-(2-Propoxylphenyl)-2-methylenebutyrolactone] |  | 499 | 499 | 499 | 499 | 499 | 525 | > 132 |
| C=C1CC(c2ccccc2OC(=O)c2cccc(Cl)c2)OC1=O (centres unmarked) [Compound 5a, 4-[2-(3-Chlorobenzoyloxy)phenyl]-2-methylenebutyrolactone] | 201.3 to 201.8 | 16.8 | 16.8 | 16.8 | 16.8 | 16.8 | 30.6 | 28.4 |
| C=C1CC(c2ccccc2OC(=O)CCC)OC1=O (centres unmarked) [Compound 5m, 4-[2-(Butyryloxy)phenyl]-2-methylenebutyrolactone] |  | 174 | 174 | 174 | 174 | 174 | 206 | 23.8 |
| C=C1CC(c2ccc(OC(=O)c3cccc(Br)c3)cc2)OC1=O (centres unmarked) [Compound 4e, 4-[4-(3-Bromobenzoyloxy)phenyl]-2-methylenebutyrolactone] | 176.5 to 176.8 | 8.77 | 8.77 | 8.77 | 8.76 | 8.76 | 30.2 | 21.7 |
| C=C1CC(c2cccc(O)c2)OC1=O (centres unmarked) [Compound 6, 4-(3-Hydroxyphenyl)-2-methylenebutyrolactone] | 78 to 79 | 117 |  |  | 117 | 117 | 140 | 17.9 |

Continued, in another order:

| melting point [°C] | SMILES | IC50 (C. lagenarium; [1]) [µM] | IC50 (C. lagenarium; [2]) [µM] | IC50 (C. lagenarium; [3]) [µM] | IC50 (C. lagenarium; [4]) [µM] | IC50 (C. lagenarium; [5]) [µM] | IC50 (B. cinerea) [µM] | IC50 (HepG2 cell line) [µM] |
| --- | --- | --- | --- | --- | --- | --- | --- | --- |
| 204.5 to 204.8 | C=C1CC(c2cccc(OC(=O)c3ccccc3)c2)OC1=O (centres unmarked) [Compound 6f, 4-(3-Benzoyloxyphenyl)-2-methylenebutyrolactone] | 73.1 | 73.1 | 73.1 | 73.1 | 73.1 | 102 | 18.5 |
| 182.6 to 183.3 | C=C1CC(c2cccc(OC(=O)c3ccc(OC)cc3)c2)OC1=O (centres unmarked) [Compound 6l, 4-[3-(4-Methoxybenzoyloxy)phenyl]-2-methylenebutyrolactone] | 154 | 154 | 154 | 154 | 154 | 179 | 58.6 |
| 205.7 to 206.4 | C=C1CC(c2cccc(OC(=O)c3cccc(Cl)c3)c2)OC1=O (centres unmarked) [Compound 6a, 4-[3-(3-Chlorobenzoyloxy)phenyl]-2-methylenebutyrolactone] | 7.67 | 7.67 | 7.67 | 7.68 | 7.68 | 23.3 | 30.2 |
| 178.6 to 178.9 | C=C1CC(c2cccc(OC(=O)c3cccc(Br)c3)c2)OC1=O (centres unmarked) [Compound 6d, 4-[3-(3-Bromobenzoyloxy)phenyl]-2-methylenebutyrolactone] | 8.17 | 8.17 | 8.17 | 8.17 | 8.17 | 26 | 20.9 |
